Data taken from article PMC6680918, “New Butenolides and Cyclopentenones from Saline Soil-Derived Fungus Aspergillus Sclerotiorum” (Molecules, 2019).
pIC50: −log10 of the molar value. ≈ marks a conversion by molar mass, not a printed value.

Columns and labels:
[1] = test system: human promyelocytic leukemia (HL60) cell line; assay: cells; conditions: HL-60, read-out: IC50 cytotoxicity against HL60
Description: (§1) The cytotoxic activity against HL60, A549 and HL-7702 cell lines was performed by the MTT method as previously described.

[2] = test system: human lung adenocarcinoma (A549) cell line; assay: Cytotoxicity by the MTT method, A549; conditions: A549, read-out: IC50 cytotoxicity against A549
Description: as §1

in vitro = conditions: human
Description: as §1

[3] = test system: Staphylococcus aureus (ATCC 25923); assay: Antimicrobial assay, broth microdilution, S. aureus; assay type: cell-based; set-up: key to MIC S. aureus: -: no activity; conditions: MIC = 80% growth inhibition, tested 400 to 0.39 µg/mL; for MIC: Staphylococcus aureus, ATCC25923, 12 h at 37 °C
Description: (§2) Meanwhile, the antimicrobial assays of compounds 1–9 were screened against Staphylococcus aureus (ATCC 25923), Escherichia coli (ATCC 25922) and Candida albicans (ATCC 10231).
(§3) The antimicrobial assays against S. aureus, E. coli and C. albicans were carried out by the broth microdilution method. The tested organisms were incubated overnight with shaking (200 rpm) in thermostatic oscillation incubator (37 °C) in Mueller Hinton broth (MHB) and liquid Sabourand medium for the bacteria and the fungus, respectively. The microbial inoculum density was adjusted to 1 × 10^6 cfu/mL with 0.9% saline solution by comparison with a MacFarland standard. The tested substances and positive drugs were dissolved in methanol to an initial concentration of 40 mg/mL. 4 μL of initial compound solution and 196 μL of MHB (liquid Sabourand medium for fungus) were added into the first well and mixed evenly. Then 100 μL of solution from the first hole, along with 2 μL of methanol and 98 μL of MHB (liquid Sabourand medium for fungus), were transferred to the second hole, and then shaken up as mixture uniform. The repetitive operation was performed to the eleventh one, from which 100 μL of solution well was discarded. Then, 100 μL of microbial suspension was added to the solutions in 96-well to achieve a final volume of 200 µL and final sample concentrations from 400 to 0.39 µg/mL. The blank well was also incubated with only medium under the same conditions. All experiments were carried out in triplicate and with chloramphenicol and ketoconazole as the positive controls. Optical density measurement for bacteria and fungus was recorded at 620 nm after incubation at 37 °C for 12 and 24 h, respectively. The minimal inhibitory concentration (MIC) was defined as the concentration at which the growth was inhibited 80% of the tested microorganisms.

[4] = test system: Escherichia coli (ATCC 25922); assay: Antimicrobial assay, broth microdilution, E. coli; assay type: cell-based; set-up: key to MIC E. coli: -: no activity; conditions: MIC = 80% growth inhibition, tested 400 to 0.39 µg/mL; for MIC: Escherichia coli, ATCC25922, 12 h at 37 °C; for MIC E. coli: 12 h at 37 °C
Description: as §2, §3

[5] = test system: Candida albicans (ATCC 10231); assay: Antimicrobial assay, broth microdilution, C. albicans; assay type: cell-based; set-up: key to MIC C. albicans: -: no activity; conditions: MIC = 80% growth inhibition, tested 400 to 0.39 µg/mL; for MIC C. albicans: 24 h at 37 °C; for MIC: Candida albicans, ATCC10231, 24 h at 37 °C
Description: as §2, §3

| Structure (SMILES) | MIC [3] [µg/mL] | MIC [4] [µg/mL] | MIC C. albicans [5] | MIC E. coli [4] | other results |
| --- | --- | --- | --- | --- | --- |
| COC1=CC(=O)OC1(O)C(C)Cc1c(C)cc(O)cc1O (stereo not drawn) [Compound 3, Aspersclerolide C] | 200 (≈ 680 µM) | 200 (≈ 680 µM) | - |  | pIC50 [1]: 4.92; pIC50 [2]: 4.78; pIC50 (in vitro): 4.64 |
| COC1=CC(=O)C(C)C1O (racemic) [Compound 5, (±)-4-hydroxy-3-methoxy-5-methyl-2-cyclopentenone] |  |  | - | - | MIC S. aureus ([3]; 12 h at 37 °C): - |
| COC1=CC(=O)OC1(O)C(C)C (stereo not drawn) [Compound 9, dihydropenicillic acid] | > 400 |  | - | - |  |
| COc1cccc2c1C(=O)c1c(O)c3c(c(O)c1C2=O)C[C@@](O)(C(=O)CO)C[C@@H]3O[C@H]1C[C@H](N)[C@H](O)[C@H](C)O1 [doxorubicin, reference compound] |  |  |  |  | pIC50 [1]: 6.07; pIC50 [2]: 5.82; pIC50 (in vitro; HL-7702 cells (human normal liver, non-cancer)): 5.08 |
| COC(CO)C1(O)OC(=O)C=C1C (stereo not drawn) [Compound 2, Aspersclerolide B] | 200 (≈ 1060 µM) | 200 (≈ 1060 µM) | - |  |  |
| CC(=O)C1(O)OC(=O)C=C1C (stereo not drawn) [Compound 1, Aspersclerolide A] | > 400 | > 400 | - |  | pIC50 [1]: 5.19; pIC50 [2]: 5.05; pIC50 (in vitro): 4.75 |
| COC1=CC(=O)OC12Oc1cc(O)cc(C)c1CC2C (racemic) [Compound 4, (±)-Aspersclerolide D] | > 400 | > 400 | - |  |  |
| COC1=CC(=O)OC1(O)C(C)CO (stereo not drawn) [Compound 6, 6-hydroxyl dihydropenicillic acid] | > 400 |  | - | - |  |
| O=C(N[C@H](CO)[C@H](O)c1ccc([N+](=O)[O-])cc1)C(Cl)Cl [chloramphenicol, reference compound] | 3.12 (≈ 9.66 µM) | 6.25 (≈ 19.3 µM) |  |  |  |
| C=C(C)C1(O)OC(=O)C=C1OC (stereo not drawn) [Compound 8, penicillic acid] | 6.25 (≈ 36.7 µM) | 12.5 (≈ 73.5 µM) |  |  | MIC [5]: 50 µg/mL (≈ 294 µM) |
| C=C(OC)C1(O)OC(=O)C=C1C (stereo not drawn) [Compound 7, spersclerotioron G] | > 400 |  | - | - |  |
| CC(=O)N1CCN(c2ccc(OCC3COC(Cn4ccnc4)(c4ccc(Cl)cc4Cl)O3)cc2)CC1 (stereo not drawn) [ketoconazole, reference compound] |  |  |  |  | MIC [5]: 6.25 µg/mL (≈ 11.8 µM) |
